Literature values, collected in US9278101B2, “Ophthalmologic irrigation solutions and method” (Omeros Corporation, priority 2002, dated 2016).

Experiments:
[1] = tested on: non-adrenoceptor imidazoline binding sites
[2] = tested on: alpha-1 receptor subtypes; conditions: three alpha-1 receptor subtypes
[3] = in vivo

| Compound | affinity for non-adrenoceptor imidazoline binding sites [1] | also measured |
| --- | --- | --- |
| Brc1c(NC2=NCCN2)ccc2nccnc12 [UK14304, 5-bromo-N-(4,5-dihydro-1H-imidazol-2-yl)-6-quinoxalinamine] | high affinity (nanomolar) |  |
| Clc1cccc(Cl)c1N=C1NCCN1 [clonidine] | high affinity (nanomolar) |  |
| COc1cc2nc(N3CCN(C(=O)c4ccco4)CC3)nc(N)c2cc1OC [prazosin] |  | affinity for alpha-1 receptor subtypes [2]: high affinity (subnanomolar) |
| tropicamide |  | half-life [3]: 4 to 6 h |

Continued, in another order:

| affinity for non-adrenoceptor imidazoline binding sites [1] | Compound | also measured |
| --- | --- | --- |
| high affinity (nanomolar) | c1ccc2c(c1)OCC(C1=NCCN1)O2 (stereo not drawn) [idazoxan] |  |
| high affinity (nanomolar) | Cc1cc(C(C)(C)C)c(O)c(C)c1CC1=NCCN1 [oxymetazoline] |  |
